The text below walks through data of patent US11878023B2, “Compositions and methods for delivering pharmaceutical agents” (Arizona Board of Regents on Behalf of the University of …, priority 2017, dated 2024).

Series [1] is described as follows: Laser diffraction particle size analysis. The format is physicochemical. Conditions: laser sizing, n = 3. The protocol:
The laser diffraction particle size analysis was performed on raw Fas and all co-SD samples.

Series [2] can be described thus: Residual water content by Karl Fischer titration (KFT). The format is physicochemical. An excerpt: Using conditions similar to those previously reported (Li et al., 2014, supra; […], et al., European journal of pharmaceutical sciences: official journal of the European Federation for Pharmaceutical Sciences. Jul. 16, 2013; 49(4):699-711; […], et al., International journal of nanomedicine. 2013; 8:275-293), the residual water content of all SD powders were quantified analytically by Karl Fischer titration (KFT) coulometrically using a TitroLine 7500 trace titrator (SI Analytics, Germany). Approximately 2-10 mg of powder was added to the titration cell containing Hydranal® Coulomat AD reagent. The residual water content was measured at the end of titration.

Each structure is given as a SMILES string. Structures can show the parent of a compound that is named as a salt.

Regarding `O=S(=O)(c1cccc2cnccc12)N1CCCNCC1` [Raw Fas, Fasudil monohydrochloride hemihydrate salt], in series [1], the DV90 is on record as 7.42 ± 0.19 μm, the Dv10 is listed as 3.67 ± 0.32 μm, the Dv50 result is “about 5 μm” and the “Span Value” is listed as 0.765 ± 0.15. Further, the Dv50 in series [1] (listed as Raw FH) was 4.96 ± 3.5 μm. In series [2] (n = 3), the “Residual Water content” value came out at 2.97 ± 0.06 % w/w. Moreover, in series [2] (n = 3, listed as raw Fas), the “Residual Water content” value worked out at 2.97 % w/w.
